The record followed here is patent publication US7544666B2, “NAP derivatives” (Industrial Technology Research Institute, priority 2005, dated 2009).

Data set [1] in a line: Stability in Hanks' balanced salt solution (HBSS). The note with it: 37° C., relative to initial conc. in HBSS = 100.00. The data set is classed as physicochemical. The procedure:
(§1) The stability of the NAP derivatives prepared by EXAMPLE 1 was measured with the system of human colon cancer cell, Caco-2 cell. Caco-2 cells (1×10^5 cells) were first seeded into a polycarbonate film on the upper layer of a 12-well Transwell and incubated for 18 to 26 days at 37° C. The TEER of the Caco-2 cell monolayer was measured over 350 Ω×cm^2. The stability of the NAP derivatives in the Hanks' balanced salt solutions (HBSS) was measured by the concentration changes of NAP and the NAP derivatives incubated in the HBSS at 37° C. for 4 hours. The stability of the NAP derivatives in the Caco-2 cell system was measured by the procedure described below. NAP and the NAP derivatives in the HBSS were added into the upper layer of the Caco-2 cell-seeded Transwell. After 4-hour incubation, the concentration of NAP and the NAP derivatives in the upper and lower layers was measured and analyzed in comparison with the initial concentration (500 μM) by reverse HPLC at 210 nm.

The next data set deals with Caco-2 cell. As to the kind of experiment: Stability in the Caco-2 cell system. It is filed as in vitro ADME, human. To be noted: 4-hour incubation in Caco-2 Transwell; relative to initial conc. = 100.00 (500 μM). On the procedure: as §1
Another data set deals with Caco-2 cell monolayer. As to the kind of experiment: Permeation to Caco-2 cell monolayer. It is filed as in vitro ADME, human. Details: unit not given here. To be noted: 4-hour incubation, initial concentration 500 μM in upper layer. On the procedure: The permeation of NAP and the NAP derivatives was examined using the Caco-2 cell system. Caco-2 cells (1×10^5 cells) were seeded into the polycarbonate film on the upper layer of a 12-well Transwell and incubated at 37° C. for 18 to 26 days. The TEER of the Caco cell monolayer was measured over 350 Ω×cm^2. NAP and the NAP derivatives in the HBSS were added into the upper layer of the Caco-2 cell-seeded Transwell. After 4-hour incubation, the concentration of NAP and the NAP derivatives in the upper and lower layers was measured and analyzed in comparison with the initial concentration (500 μM) by reverse phase HPLC at 210 nm.

For data set [2], the system named is scopolamine-induced amnesia rats. As to the kind of experiment: Morris water maze in scopolamine-induced amnesia rats. It is filed as in vivo, rat. The note with it: 0.25 mg/kg subcutaneous, 5 min after scopolamine 1 mg/kg i.p.; FIG. 11. On the procedure:
Scopolamine-induced amnesia […] were used in combination of Morris water maze, a memory and behavior analysis system, to assess the in vivo effects of the NAP derivative BMEC-NAP0701 and NAP.
Sprague-Dawley male rats with body weight of 220-250 g obtained from the National Laboratory Animal Center, Taiwan, were caged in an air-conditioned housing with a temperature of 23±1° C. and kept on an alternating 12-hour light and 12-hour dark schedule with sufficient feed and water. […]
Morris Water Maze was performed with a water maze device containing a stainless pool with a size of 160 cm in diameter, 50 cm in height, and 15 mm in thickness of the wall and a platform with a size of 11 cm in diameter, and 22 cm in height. […] The swimming time and track were recorded by VEDEOMEX-V video tracing system, video recorder, and monitor (Columbus Instruments) and analyzed by Water Maze Program (Columbus Instruments). […]
Late of the third day: Two to four hours after the third day training, the platform was removed from the pool. The trained rats were separately sent to quadrant I and the swimming track was recorded for 60 sec. The time spent in finding the original platform was also recorded. […]
Early of the fifth day: The platform was placed in the quadrant II and submerged beneath water level about 1 cm. The rats were separately sent to quadrant I and the time spent in finding the platform was recorded. […]

A short description of data set [3]: Pharmacokinetics after single subcutaneous dose in rats. The data set is classed as in vivo. To be noted: rat, 1 mg/kg subcutaneous. The procedure: A single dosage of NAP and the NAP derivative of BMEC-NAP0706 were subcutaneously administered to rats respectively, and blood samples were obtained at different time intervals. The blood samples were subjected to LC-MS/MS analysis to measure the concentration of NAP and the NAP derivative. A time-plasma concentration relationship was established and pharmacokinetic parameters were calculated. The procedures are described below.
Long Evans rats with body weight between 220 to 240 g were obtained from the National Laboratory Animal Center, Taiwan and caged in the laboratory animal housing in the Industrial Technology Research Institute, Taiwan. The Breeding procedure follows the “Guide for the Care and Use of Laboratory Animals” established by the Chinese Society of Laboratory Animal Sciences. The rats were kept on an alternating 12-hour light and 12-hour dark schedule with sufficient feed and water until they reached the body weight between 280 to 300 g.
Each rat was weighed before the pharmacokinetic examination to estimate its own dosage. The tested drug dissolved in PBS was formulated to achieve the amount of one dosage between 0.28 to 0.32 mL. Each rat was subcutaneously administered with 1 mg/kg of the tested drug. 0.3 mL of blood samples were collected from the saphenous vein in medial thigh of the rat before and 0.25-, 0.5-, 0.75-, 1-, 2-, 4-, 24-hour after administration. Whole blood was centrifuged under 3500 rpm for 10 min and supernatant (serum) was moved to a clean 1.5 mL eppendorf and stored at −80° C.
Sample pretreatment was as follows: The frozen serum was thawed in an ice bath. One hundred μL of the serum was moved to a clean 1.5 mL eppendorf and 10 μL of internal standard material was added. The mixture was added with 200 μL ACN and mixed again. The sample was centrifuged under 14000 rpm at 4° C. for 10 min, and the supernatant was moved to the other clean eppendorf and dried in a vacuum system at 60° C. for 30 min. The dried sample was dissolved in 900 μL ddH2O. The sample was added to a solid phase extraction column previously activated with methanol and ddH2O. After the sample passed through, the extraction column was washed with ddH2O alone and then ddH2O containing 5% ACN and 0.1% TFA. The sample was dissolved from the extraction column with ACN containing 0.1% TFA and dried under a vacuum system at 60° C. for 1 hour. The dried sample was redissolved with 100 μL of ddH2O containing 50% ACN. The sample was analyzed with HPLC-MS/MS system.
The sample analysis was as described below. 20 μL of the sample was poured into the HPLC-MS/MS system. The solvent system was applied in gradient partitioning: 90% A (H2O/ACN=98/2, 0.1% F.A.) and 10% B (H2O/ACN=20/80, 0.1% F.A.) at 0-3 min; 10% A and 90% B at 3-6.5 min; 90% A and 10% B again at 6.5-15 min. The flow rate was 0.2 mL/min. The column was ZORBAX C18, 5 μm, 2.1×50 mm (Agilent) and the detector was ABI 4000 Q Trap. Each sample was analyzed for 15 min. The results were compared with the standard calibration curve to estimate the concentration of each sample. All data was statistically analyzed with Excel or WinNonlin.

With `CC[C@H](C)[C@H](NC(=O)[C@H](CO)NC(=O)[C@@H](NC(=O)[C@@H]1CCCN1C(=O)[C@H](C)NC(=O)[C@H](CC(N)=O)NC(=O)c1ccccc1)C(C)C)C(=O)N1CCC[C@H]1C(=O)N[C@@H](CCC(N)=O)C(=O)O` [BMEC-NAP0701, Benzoyl-NAPVSIPQ-OH], in data set [1], the “Conc. after 4-hour in HBSS” value was determined as 98.62. For the same compound, in the data set with Caco-2 cell, the “Conc. after 4-hour in Caco-2 cells” value was determined as 78.97. Also, the “Conc. at the lover layer” value with Caco-2 cell monolayer is 0.28. Moreover, in data set [2], the “memory improving effect (time spent in finding the platform vs scopolamine-induced rats)” value is recorded as “memory improving effect similar to NAP in vivo”.

On to `CC[C@H](C)[C@H](NC(=O)[C@H](CO)NC(=O)[C@@H](NC(=O)[C@@H]1CCCN1C(=O)[C@H](C)NC(=O)[C@H](CC(N)=O)NC(=O)OCC1c2ccccc2-c2ccccc21)C(C)C)C(=O)N1CCC[C@H]1C(=O)N[C@@H](CCC(N)=O)C(=O)O` [BMEC-NAP0706, Fmoc-NAPVSIPQ-OH], for which the “Conc. after 4-hour in HBSS” value in data set [1] is 99.78. Also, in the data set with Caco-2 cell, the “Conc. after 4-hour in Caco-2 cells” value is 67.14. The “Conc. at the lover layer” value in the data set with Caco-2 cell monolayer stood at 0.57. For the same compound, in data set [3] (in vivo, sc), the AUC is 104 ng·h/mL, the highest level (Cmax) was 101 ng/mL and the Tmax was found to be 45 min. Besides, the half-life in data set [3] (in vivo, sc, read-out: T½ (converted)) was 54.6 min. Besides, in data set [3], the “AUC relative to NAP” value is listed as “twice that of NAP”, the TNAP-max is 0.25 h, the “maximum plasma concentration relative to NAP” value is recorded as “twice that of NAP” and the “time required to reach the highest concentration” value was 0.25 h.

As to `CC[C@H](C)[C@H](NC(=O)[C@H](CO)NC(=O)[C@@H](NC(=O)[C@@H]1CCCN1C(=O)[C@H](C)NC(=O)[C@H](CC(N)=O)NC(=O)c1cccs1)C(C)C)C(=O)N1CCC[C@H]1C(=O)N[C@@H](CCC(N)=O)C(N)=O` [BMEC-NAP0804, 2-Thiophenecarbonyl-NAPVSIPQ-NH2], the “Conc. after 4-hour in HBSS” value in data set [1] is listed as 98.62. For the same compound, in the data set on Caco-2 cell, the “Conc. after 4-hour in Caco-2 cells” value amounted to 92.09. The “Conc. at the lover layer” value with Caco-2 cell monolayer worked out at 0.31.

Turning to `CC[C@H](C)[C@H](NC(=O)[C@H](CO)NC(=O)[C@@H](NC(=O)[C@@H]1CCCN1C(=O)[C@H](C)NC(=O)[C@H](CC(N)=O)NC(=O)OCc1ccccc1)C(C)C)C(=O)N1CCC[C@H]1C(=O)N[C@@H](CCC(N)=O)C(N)=O` [BMEC-NAP0805, Cbz-NAPVSIPQ-NH2], the “Conc. after 4-hour in HBSS” value in data set [1] is on record as 98.58. The “Conc. after 4-hour in Caco-2 cells” value in the data set on Caco-2 cell was found to be 89.54. Moreover, the “Conc. at the lover layer” value with Caco-2 cell monolayer is on record as 0.27.

As to Adipyl-NAPVSIPQ-NH2 [BMEC-NAP0202], in data set [1], the “Conc. after 4-hour in HBSS” value worked out at 98.38. Moreover, the “Conc. after 4-hour in Caco-2 cells” value with Caco-2 cell is given as 95.59. Also, the “Conc. at the lover layer” value with Caco-2 cell monolayer worked out at 0.82.

As to “H-NAPVSIPN-OH [BMEC-NAP0603, H-NAPVSIPN-OH]”, the “Conc. after 4-hour in HBSS” value in data set [1] worked out at 101.90. The “Conc. after 4-hour in Caco-2 cells” value in the data set with Caco-2 cell is 29.17. In the data set on Caco-2 cell monolayer, the “Conc. at the lover layer” value is 0.04.
